Measured values taken from patent US12156879B2, “Combining BACE1 inhibitors with mGluR agonists for Alzheimer's disease therapy” (University of Connecticut, priority 2019, dated 2024).
Each block holds one compound with its values, some of them ahead of it.

What was measured:
[1] = cited from earlier work
[2] = tested on: Schaffer collateral (SC)-CA1 synapses; assay: LTP recordings on horizontal hippocampal slices (fEPSP amplitude after high-frequency stimulation); format: in vivo, mice; conditions: for LTP at SC-CA1 synapses: daily oral Verubecestat 3 mg/kg or Lanabecestat 0.5 mg/kg for 2-4 months; for potentiation at 30 minutes post-stimulation: slices from 4-6-month-old WT mice, Lanabecestat 0.5 mg/kg or Verubecestat 3 mg/kg, control slices 245.9±0.9864%
Description: (§1) C57BL/6 mice of either sex (4-6 months of age; n=6 per group) received vehicle or BACE1 inhibitors, Lanabecestat (AZD3293) solution at 0.25 mg/kg or 0.5 mg/kg) via oral gavage (Eketjall et al., 2016b). For Verubescstat, 3mg/kg dose was used and delivered orally via gavage (Kennedy et al., 2016). Treatment usually last 2-4 months. The mGluR1 positive allosteric modulator Ro0711401 at 10 mg/kg was given as intraperitoneal injections (IP) 1 hour before decapitation for LTP experiments (Notartomaso et al., 2013). For behavioral assays, Ro0711401 was deliver via IP injection at 12-hour intervals for 6-8 weeks. The mGluR1/5 positive allosteric modulator CHPG was mixed in aCSF and used during recording LTP. The drug was applied in a bath during baseline recording for at least for 30 minutes before HFS stimulation was applied and LTP was recorded (Le Duigou and Kullmann, 2011).
Acute brain slices were prepared as previously described (Hu et al., 2018). Briefly, the mice were decapitated and the brains were immersed in low-calcium artificial cerebrospinal fluid (aCSF) containing (in mM): 125 NaCl, 2.5 KCl, 10 glucose, 25 NaHCO3, 1.25 NaH2PO4, 0.4 L-ascorbic acid, 3 myo-inositol, 2 Na-pyruvate, 3 MgCl2 and 0.1 CaCl2 continuously bubbled with 95% O2 and 5% CO2 (pH≈7.3). Animals were decapitated with a guillotine and the brain was quickly removed to an ice-cold aCSF chamber with constant bubbling of 95% O2 and 5% CO2. Acute horizontal brain slices containing the hippocampus were obtained using a Campden 7000 smz-2 vibratome from 4-7-month-old mice at 350 μm thick. Slices were immediately transferred to an incubation beaker containing normal aCSF (same as the low-calcium aCSF except that 1 mM MgCl2 and 1, 1.2, or 2 mM CaCl2 were used) at 30° C., continuously bubbled with 95% O2 and 5% CO2. Slices were allowed to recover for 1 hour and then were transferred to an MED-64 recording chamber with the same aCSF solution at ≈30° C., maintained by MED ThermoConnector (Automate Scientific) with continuous aCSF perfusion at 2 ml/min.
LTP recordings on hippocampal slices were performed according to previously-described procedures (Shimono et al., 2002; Baba et al., 2003; Itoh et al., 2005). Upon obtaining horizontal hippocampal slices from the brains of mice, the prepared slices were then placed onto the center of an MED probe (MED-P515A; AutoMate™ Scientific) with continuous perfusion of aCSF and bubbling of 95% O2 and 5% CO2. The device has an array arranged in an 8×8 pattern of 64 planar microelectrodes across a hippocampal slice. Each electrode is 20×20 μm with an interelectrode distance of 150 μm. A MED-A64HE1S head amplifier and a MED-A64MD1 main amplifier, run by Mobius software, were used for data acquisition and analysis. SCs to CA1 synapses were typically analyzed for LTP assays. fEPSPs caused by stimulation were recorded at a 20-kHz sampling rate within the CA1 subregion of the hippocampus. Control fEPSPs were recorded for at least 10 min before the conditioning stimulation, using a response ˜50% of the maximum. After a stable baseline was established, LTP was induced with three trains of 100 Hz for 1 s with an intertrain interval F of 20 s. Field potential amplitudes were then measured. Data are expressed as mean±SEM. Synaptic strength was evaluated by measuring changes in the fEPSP amplitude relative to baseline. Statistics were calculated by Student's t tests.

[3] = tested on: mice (WT BACE1+/+ or BACE1-null); assay: Y maze spontaneous alternation task; format: in vivo
Source text: (§2) Treatment usually last 2-4 months. […] For behavioral assays, Ro0711401 was deliver via IP injection at 12-hour intervals for 6-8 weeks. The mGluR1/5 positive allosteric modulator CHPG was mixed in aCSF and used during recording LTP.
The symmetrical Y maze made of acrylic consists of three arms separated by 120 degrees. Each arm is 40 cm long, 17 cm high, 4 cm wide at the bottom and 13 cm wide at the top. Each mouse was placed in the center of the Y maze and was allowed to explore freely through the maze during a 5 min session. The sequence and total number of arms entered was recorded. Arm entry was considered to be completed when the hind paws of the mouse had been completely placed in the arm. Percentage of alternations is the number of triads containing entries into all three arms divided by the maximum possible alternations (the total number of arms entered minus 2)×100. Statistics were calculated by Student's t tests.

[4] = tested on: mice (WT BACE1+/+ or BACE1-null); assay: Open field test; format: in vivo
Description: as §2
Each subject was released in the middle of the arena and observed for 10 minutes. Performance in the open field was recorded by a computer-based video tracking system (Any maze™ software, San Diego instruments, USA). Activity measures included distance traveled, percentage of time spent in corners vs. the center of the arena, and speed of movement during active exploration. The number of entries to the central zone of the open field was also recorded. Statistics were calculated by Student's t tests.

[5] = tested on: WT (BACE1+/+) mice; assay: Fear conditioning studies; format: in vivo; conditions: Lanabecestat 0.5 mg/kg or Verubecestat 3 mg/kg, N=10
[6] = tested on: synaptic proteins PSD95, mGluR2, Synaptophysin in synaptosome fraction; assay: Western analysis of synaptic proteins in synaptosomes from treated animals; format: in vivo, mice; conditions: chronic treatment, Lanabecestat 0.5 mg/kg or Verubecestat 3 mg/kg
Description: as §1
Synaptosome isolation was performed using Thermo Scientific Syn-PER Synaptic Protein Extraction Reagent (cat #87793) from whole brain samples. Briefly, mice were sacrificed by live decapitation, and rapidly dissected hippocampi were homogenized in Syn-Per reagent, ˜1 ml/100 mg tissue. Samples were then centrifuged at 1200×g for 10 min. The resulting supernatant was then centrifuged at 15,000×g for 20 min. Pellets (synaptosomes) were resuspended in buffer B ([…] in 6 mm Tris, pH 8.0) with 1% SDS, briefly sonicated, and frozen in −80° C. Total protein extraction was performed according to previously-described procedures (Hu et al., 2007). Brain samples were homogenized in radioimmunoprecipitation assay (RIPA) buffer (50 mM Tris-HCl, pH 7.4, 1% NP-40, 0.25% sodium deoxycholate, 150 mM NaCl, 1 mM EDTA, 1 mM NaF, 1 mM Na3VO4, and a protease inhibitor cocktail [Roche]) and centrifuged at 13,200 rpm for 90 min. Equal amounts of protein were resolved on a NuPAGE Bis-Tris gel (Invitrogen) and transferred onto nitrocellulose membranes (Invitrogen). Subsequently, blots were incubated with primary antibodies 1:1,000 mGluR1 [AB_12551; Cell Signaling]; 1:1,000 PSD-95 [AB_36233; Cell Signaling]; 1:5,000 GluR1 [AB_05-855; Upstate]; 1:1,000 GluR2/3 [AB_07-598; Upstate]; 1:1,000 GluR4 [AB_06-308; Upstate]; 1:1,000 Homer [AB_8231; Cell Signaling]; 1:500 TMEM25 [AB_24361-1-AP; ProteinTech Group]; 1:1,000 Bassoon [AB_141021; Synaptic Systems]; 1:10,000 Actin [AB_A5441; Sigma], overnight at 4° C. After extensive washing, blots were reacted with HRP-conjugated secondary antibodies and visualized using enhanced chemiluminescence (Thermo Scientific).

[7] = tested on: mice (WT BACE1+/+ or BACE1-null); assay: Morris water maze; format: in vivo
Description: as §2
The Morris water maze test was used to assess cognitive impairment. The apparatus consisted of a white circular tank (120 cm in diameter and 40 cm deep) filled with warm water (22° C.). The water was made to appear opaque using white nontoxic paint. A transparent platform (8 cm in diameter) was located in the middle of the southwest quadrant. Mice were subjected to four consecutive trials each day over a 3-day training period (with a flag attached to the platform) and then again for 5 days (no flag attached to platform) and the platform was submerged 0.5 cm below the water surface. Each mouse was released from four different positions around the perimeter of the tank (north, northwest, east, and southeast). In each trial, every mouse was allowed to swim until it found the platform (for a maximum of 60 s) and was subsequently left on the platform for 20 s between trials. If the platform was not found in 60 s, the mouse was guided to the platform and remained there for 20 s. The escape latency to find the hidden platform was automatically recorded using a video tracking system (Any-maze, San Diego instruments). At the end of the training on the eighth day, a probe test was conducted for […] on the 9th day. The platform was removed; each was released from the northeast quadrant and was allowed to swim for 60 s. Memory retention was measured by quantifying the time spent in the target quadrant, the number of entries made into the southwest quadrant, and the number of crossings over the previous platform location. Statistics were calculated by Student's t tests. Values are expressed as mean±SEM.

[8] = 12 months old BACE1+/+ mice, ~50 days
[9] = WT mice, Lanabecestat 0.5 mg/kg or Verubecestat 3 mg/kg for ~2 months (FIG. 6)
[10] = WT mice, Lanabecestat 0.5 mg/kg ~2 months (FIG. 6)
[11] = BACE1-null mice, 10 mg/kg i.p. every 12 hours, vs mock treatment

Compound: NC(C(=O)O)c1cc(O)ccc1Cl (racemic) [CHPG, (RS)-2-Chloro-5-hydroxyphenylglycine]
brain penetrability [1]: non-brain penetrable
LTP response vs mock treated slices ([2]; BACE1-null slices pre-treated with 125 nM for 30 min): significantly improved
LTP response vs mock treatment ([2]; CHPG bath on slices from WT mice treated with Lanabecestat 0.5 mg/kg for 60 days): slightly improved
LTP response vs mock treatment ([2]; CHPG bath on slices from WT mice treated with Verubecestat 3 mg/kg for 60 days): markedly improved

total entry, BACE1 inhibitor alone [3, 8]: more significant
% of spontaneous alteration, BACE1 inhibitor alone vs mock treatment ([3]; 12 months old BACE1+/+ mice, ~50 days, Verubecestat 3 mg/kg or Lanabecestat 0.5 mg/kg oral, not statistically significant): reduction
number of arm entries [3, 9]: clearly reduced
spontaneous alternations [3, 9]: clearly reduced
distance traveled on the open field, BACE1 inhibitor alone [4, 8]: traveled more distances
speed on the open field, BACE1 inhibitor alone [4, 8]: faster
stay in the corner of the open field area vs mock-treated controls ([4]; BACE1 inhibitor alone, ~50 days): stayed more in the corner
speed [4, 10]: clear increase
total distance covered [4, 10]: clear increase
exploratory behaviors, time in corners vs center ([4]; WT mice, ~2 months treatment (FIG. 6)): less exploratory behaviors
freezing time, contextual phase [5]: significant reduction
freezing time, cue phase [5]: significant reduction
Compound: CC#Cc1cncc(-c2ccc3c(c2)[C@@]2(N=C(C)C(N)=N2)[C@]2(CC[C@@H](OC)CC2)C3)c1 [Lanabecestat]
brain penetrability [1]: brain-penetrable
LTP reduction at lower dose ([2]; WT mice, Lanabecestat 0.25 mg/kg, compared with 0.5 mg/kg): significantly weaker LTP reduction
LTP at SC-CA1 synapses ([2]; WT mice): strongly suppressed
potentiation at 30 minutes post-stimulation [2]: 105.6±0.6137%
PSD95 level in synaptosome fraction [6]: significant decrease
Synaptophysin level in synaptosome fraction [6]: significant decrease
mGluR2 level in synaptosome fraction [6]: significant decrease

Compound: O=C(Nc1nc(C(F)(F)F)co1)C1c2ccccc2Oc2ccccc21 [Ro0711401, N-[4-(trifluoromethyl)-1,3-oxazol-2-yl]-9H-xanthene-9-carboxamide]
brain penetrability [1]: brain-penetrable
total numbers of arm entries (entrance performance) ([3]; BACE1-null mice, 10 mg/kg i.p. every 12 hours, about 45 days): improved entrance performance
changes in percentage of spontaneous alternation among groups ([3]; WT, BACE1-null and BACE1-null with Ro0711401): not obvious
time spent in the center of the open field ([4]; BACE1-null mice after the treatment): more time spent in the center
average speed in the open field arena [4, 11]: lowered
total distance covered in the open field arena [4, 11]: lowered
LTP from acutely-sectioned brain slices vs vehicle ([2]; 4-6 month old BACE1-null mice, 10 mg/kg i.p. one hour before sacrifice): significantly enhanced
LTP after chronic treatment ([2]; BACE1-null mice, Ro0711401 10 mg/kg i.p. every 12 hours for about two months, after the behavioral tests): significantly elevated to the level close to that of WT mice
number of entries made to the platform quadrant ([7]; 9th day probe, BACE1-null treated, WT 6.364±0.5094, BACE1-null 3.700±0.5385): 4.900±0.6403
time to reach the platform, habituation day 3 ([7]; BACE1-null+Ro0711401 mice, BACE1-null 31.56±3.432 s, WT 8.098±1.318 s): 18.20 ± 3.203 s
time to reach the platform, habituation day 1 ([7]; BACE1-null+Ro0711401 mice, BACE1-null 41.32±3.131 s, WT 21.99±2.986 s): 24.88 ± 2.935 s
average distance covered to reach the platform over the trials ([7]; habituation and training phases, BACE1-null 3.872±0.7645, WT 1.205±0.2805): 1.909±0.3878 meters
average duration to reach the platform of untreated BACE1-null mice relative to BACE1-null mice treated with Ro0711401 ([7]; training phase, 5 days, submerged platform, all trial days): significantly higher

Compound: CN1C(N)=N[C@](C)(c2cc(NC(=O)c3ccc(F)cn3)ccc2F)CS1(=O)=O [Verubecestat]
brain penetrability [1]: brain-penetrable
LTP at SC-CA1 synapses ([2]; WT mice): significantly reduced
potentiation at 30 minutes post-stimulation [2]: 113.1±1.353%
PSD95 level in synaptosome fraction [6]: significant decrease
Synaptophysin level in synaptosome fraction [6]: significant decrease
mGluR2 level in synaptosome fraction [6]: significant decrease
